According to patent US9873878B2, “Compositions and methods for use in treating silicosis and lung cancer” (University of Louisville Research Foundation, Inc., priority 2015, dated 2018):

System: RAW264.7 cells
Test: CS-induced LTB4 production in RAW264.7 culture supernatants (LTB4 EIA)
Format: cell-based
Settings: RAW264.7 cells pre-treated with 10 μM Zileuton for 1 h, then 120 μg/cm^2 CS for 6 h
Method: FIG. 10C depicts LTB4 production by cells in vitro, measured in culture supernatants of RAW264.7 cells exposed to 120 μg/cm^2 CS for 6 h in presence of 5-LO inhibitor.
LKR13 and RAW264.7cells were cultured in DMEM containing 10% FBS. For CS stimulation assays, 0.3 million cells were plated per well of 12-well tissue culture dishes in 400 μl of 1% FBS containing medium. The cells were stimulated for 6 h with 120 μg/cm^2 of CS. Whenever indicated RAW264.7 cells were pre-treated with 10 μM Zileuton (5-LO inhibitor) for 1 h.
Subcutaneous tumors were homogenized in 500 ul 1×PBS buffer containing 10 uM Indomethacin using Omni GLH general homogenizer. The homogenates were centrifuged at 14000 g for 10 min and LTB4 levels in the supernatants were quantified. The LTB4 levels were normalized to the amount of protein in the supernatants measured by Themo Sceintific Pierce BCA protein assay kit following manufacturer's instructions. LTB4 in the tumor homogenate supernatant was expressed as pg/mg of protein. LTB4 in cell culture supernatants, BALF, air pouch lavage and subcutaneous tumors was measured using LTB4 EIA Kit (Cayman Chemical) according to the manufacturer's instructions. IL-1β in cell culture supernatants was measured using Mouse IL-1β ELISA MAX™ Standard Kit (Biolegend) according to the manufacturer's instructions.

For `CC(c1cc2ccccc2s1)N(O)C(N)=O` (stereo not shown) [Zileuton], the “LTB4 production by CS activation” value was “completely blocked”.
